Patent US6943194B1, “Synthesis of phenstatin and prodrugs thereof” (Arizona Board of Regents, acting for and on behalf of …, priority 1998, dated 2005)

Tested on: A498
Assay: Human cancer cell growth inhibition, renal A498
Assay type: cell-based
Conditions: not given

| SMILES | GI50 [µg/mL] |
| --- | --- |
| COc1ccc(/C=C\c2cc(OC)c(OC)c(OC)c2)cc1OP(=O)([O-])[O-].[Na+].[Na+] [Compound 1d, combretastatin A4 sodium phosphate, reference compound] | 0.041 |
| COc1ccc(C(=O)c2cc(OC)c(OC)c(OC)c2)cc1OP(=O)([O-])[O-].[Na+].[Na+] [Compound 3d, Disodium Phenstatin 3-O-phosphate] | 0.05 |

Tested on: OVCAR-3
Assay: Human cancer cell growth inhibition, ovarian OVCAR-3
Assay type: cell-based
Conditions: not given

| SMILES | GI50 [µg/mL] |
| --- | --- |
| COc1ccc(/C=C\c2cc(OC)c(OC)c(OC)c2)cc1OP(=O)([O-])[O-].[Na+].[Na+] [Compound 1d, combretastatin A4 sodium phosphate, reference compound] | 0.023 |
| COc1ccc(C(=O)c2cc(OC)c(OC)c(OC)c2)cc1OP(=O)([O-])[O-].[Na+].[Na+] [Compound 3d, Disodium Phenstatin 3-O-phosphate] | 0.0025 |

Tested on: not listed separately
Assay: Solubility in distilled water
Assay type: physicochemical
Conditions: distilled water at 25° C.
Protocol: The deprotected phosphate (0.44 g, 1.10 mmol) was dissolved in anhydrous methanol (15 mL) and sodium methoxide ([…], 2.20 mmol) was added at room temperature. The cloudy solution was stirred for 20 hours and the reaction mixture was concentrated to a white solid that was washed with 2-propanol and recrystallized (3×) from water-acetone. The phenstatin prodrug (3d, 0.38g, 78% yield) was collected by filtration and found to give; LRFAB m/z 443.02 (M+H+), calculated 443.048, EIMS m/z (peak height) 318 (100%, M+—PO3Na2+H), 303 (12%), 195 (20%), 151 (23%); ^1H-NMR (D2O) δH 7.644 (1H, t, J2/61.8 Hz, H-2), 7.366 (1H, dd, J6/2 1.8 Hz, J6/58.5 Hz, H-6), 7.006 (1H, d, J5/6 8.5 Hz, H-5), 6.933 (2H, s, H-2′, 6′), 3.844 (3H, s, 4′-OCH3), 3.748 (6H, s, 3′, 5′-OCH3) 3.734 (3H, s, 4OCH3); ^13C-NMR (D2O, reference to CDCl3) δC 193.5 (C═O), 151.1; and ^31P-NMR (D2O, decoupled, […]) δP −1.965.

| SMILES | solubility [mg/mL] |
| --- | --- |
| COc1ccc(C(=O)c2cc(OC)c(OC)c(OC)c2)cc1OP(=O)([O-])[O-].[Na+].[Na+] [Compound 3d, Disodium Phenstatin 3-O-phosphate] | 30 |

Tested on: pharynx FADU
Assay: Human cancer cell line inhibition, pharynx FADU
Assay type: cell-based
Conditions: not given
Excerpt: (§1) Compounds 3b, 3d, 1d, and 4a-f were comparatively evaluated in the NCI 60 cell-line human tumor screen (Boyd, Status of the NCI preclinical antitumor drug discovery screen. Implications for selection of new agents for clinical trial, CANCER: Principles and Practices of Oncology Updates, DeVita, et al. (Eds.), Lippincott: Philadelphia, 1989; Vol. 10, No. 3, pp. 1-12; Boyd, The Future of New Drug Development. Section I. Introduction to Cancer Therapy, Current Therapy in Oncology, Niederhuber, (Ed.), B. C. Decker, Inc.: Philadelphia, 1993; pp. 11-22; Boyd, et al., Data display and analysis strategies from NCI disease-oriented in vitro antitumor drug screen. In Cytotoxic Anticancer Drugs: Models and Concepts for Drug Discovery and Development, Valeriote, et al. (Eds.), Kluwer Academic Publishers: Amsterdam, 1992; pp. 11-34; Stinson, et al., Morphological and Immunocytochemical Characteristics of Human Tumor Cell Lines for Use in a Disease-Oriented Anticancer Drug Screen, Anticancer Res. 1992, 12,-1035-1054; Boyd, et al., Some Practical Considerations and Applications of the NCI in vitro Drug Discovery Screen, Drug Dev. Res. 1995, 34, 91-109).

| SMILES | G50 [µg/mL] |
| --- | --- |
| COc1ccc(C(=O)c2cc(OC)c(OC)c(OC)c2)cc1OC(C)=O [Compound 3e, Phenstatin Acetate] | 0.0055 |

Tested on: prostate DU-145
Assay: Human cancer cell line inhibition, prostate DU-145
Assay type: cell-based
Conditions: not given
Excerpt: as §1

| SMILES | GI50 [µg/mL] |
| --- | --- |
| COc1ccc(C(=O)c2cc(OC)c(OC)c(OC)c2)cc1OC(C)=O [Compound 3e, Phenstatin Acetate] | 0.0029 |

Tested on: SF-295
Assay: Human cancer cell growth inhibition, CNS SF-295
Assay type: cell-based
Conditions: not given

| SMILES | GI50 [µg/mL] |
| --- | --- |
| COc1ccc(/C=C\c2cc(OC)c(OC)c(OC)c2)cc1OP(=O)([O-])[O-].[Na+].[Na+] [Compound 1d, combretastatin A4 sodium phosphate, reference compound] | 0.036 |
| COc1ccc(C(=O)c2cc(OC)c(OC)c(OC)c2)cc1OP(=O)([O-])[O-].[Na+].[Na+] [Compound 3d, Disodium Phenstatin 3-O-phosphate] | 0.012 |

Tested on: P388 Lymphocytic Leukemia Cell Line
Assay: Murine P388 lymphocytic leukemia cell line growth inhibition
Assay type: cell-based
Conditions: not given

| SMILES | GI50 [µg/mL] |
| --- | --- |
| COc1ccc(/C=C\c2cc(OC)c(OC)c(OC)c2)cc1OP(=O)([O-])[O-].[Na+].[Na+] [Compound 1d, combretastatin A4 sodium phosphate, reference compound] | 0.0004 |
| COc1ccc(C(=O)c2cc(OC)c(OC)c(OC)c2)cc1OP(=O)([O-])[O-].[Na+].[Na+] [Compound 3d, Disodium Phenstatin 3-O-phosphate] | <0.001 |

Tested on: KM20L2
Assay: Human cancer cell growth inhibition, colon KM20L2
Assay type: cell-based
Conditions: not given

| SMILES | GI50 [µg/mL] |
| --- | --- |
| COc1ccc(/C=C\c2cc(OC)c(OC)c(OC)c2)cc1OP(=O)([O-])[O-].[Na+].[Na+] [Compound 1d, combretastatin A4 sodium phosphate, reference compound] | 0.34 |
| COc1ccc(C(=O)c2cc(OC)c(OC)c(OC)c2)cc1OP(=O)([O-])[O-].[Na+].[Na+] [Compound 3d, Disodium Phenstatin 3-O-phosphate] | 0.27 |

Tested on: CNS U251
Assay: Human cancer cell line inhibition, CNS U251
Assay type: cell-based
Conditions: U-251
Excerpt: as §1

| SMILES | GI50 [µg/mL] |
| --- | --- |
| COc1ccc(C(=O)c2cc(OC)c(OC)c(OC)c2)cc1OC(C)=O [Compound 3e, Phenstatin Acetate] | 0.0039 |

Tested on: not given
Assay: not given
Conditions: not given

| SMILES | melting point [°C] |
| --- | --- |
| COc1ccc(C(=O)c2cc(OC)c(OC)c(OC)c2)cc1OC(C)=O [Compound 3e, Phenstatin Acetate] | 164 to 165 |

Tested on: NCI 60 Cell-Line Human Tumor Screen
Assay: NCI 60 cell-line human tumor screen
Assay type: cell-based
Conditions: mean over NCI 60 cell-line panel, tested in triplicate; read-out: Mean Panel GI50 (±S.D)
Excerpt: as §1

| SMILES | GI50 [µM] |
| --- | --- |
| COc1ccc(/C=C\c2cc(OC)c(OC)c(OC)c2)cc1OP(=O)([O-])[O-].[Na+].[Na+] [Compound 1d, combretastatin A4 sodium phosphate, reference compound] | 0.0128 |
| COc1ccc(C(=O)c2cc(OC)c(OC)c(OC)c2)cc1OP(=O)([O-])[O-].[Na+].[Na+] [Compound 3d, Disodium Phenstatin 3-O-phosphate] | 0.0733 |

Tested on: NCI-H460
Assay: Human cancer cell growth inhibition, lung-NSC NCI-H460
Assay type: cell-based
Conditions: not given

| SMILES | GI50 [µg/mL] |
| --- | --- |
| COc1ccc(/C=C\c2cc(OC)c(OC)c(OC)c2)cc1OP(=O)([O-])[O-].[Na+].[Na+] [Compound 1d, combretastatin A4 sodium phosphate, reference compound] | 0.029 |
| COc1ccc(C(=O)c2cc(OC)c(OC)c(OC)c2)cc1OP(=O)([O-])[O-].[Na+].[Na+] [Compound 3d, Disodium Phenstatin 3-O-phosphate] | 0.035 |

Tested on: tubulin
Assay: Inhibition of [3H]colchicine binding to tubulin
Parameters: species or system bovine
Conditions: not given
Protocol: Reaction mixtures contained 0.1 mg/mL (1.0 μM) tubulin, 5.0 μM [3H]colchicine, and 5.0 μM inhibitor and were incubated for 10 min at 37° C.

| SMILES | activity as an inhibitor of colchicine binding (in words) |
| --- | --- |
| COc1ccc(C(=O)c2cc(OC)c(OC)c(OC)c2)cc1OP(=O)([O-])[O-].[Na+].[Na+] [Compound 3d, Disodium Phenstatin 3-O-phosphate] | moderate activity |

Same assay, conditions: 1.0 μM tubulin, 5.0 μM [3H]colchicine, 5.0 μM inhibitor, 10 min at 37° C.

| SMILES | Inhibition of colchicine binding % inhibition [%] |
| --- | --- |
| COc1ccc(/C=C\c2cc(OC)c(OC)c(OC)c2)cc1OP(=O)([O-])[O-].[Na+].[Na+] [Compound 1d, combretastatin A4 sodium phosphate, reference compound] | 4 |
| COc1ccc(C(=O)c2cc(OC)c(OC)c(OC)c2)cc1OC(C)=O [Compound 3e, Phenstatin Acetate] | 71 |
| COc1ccc(C(=O)c2cc(OC)c(OC)c(OC)c2)cc1OP(=O)([O-])[O-].[Na+].[Na+] [Compound 3d, Disodium Phenstatin 3-O-phosphate] | 37 |

Same assay, conditions: relative to phenstatin 3b

| SMILES | activity relative to phenstatin in colchicine binding assay |
| --- | --- |
| COc1ccc(C(=O)c2cc(OC)c(OC)c(OC)c2)cc1OP(=O)([O-])[O-].[Na+].[Na+] [Compound 3d, Disodium Phenstatin 3-O-phosphate] | about 40% |

Tested on: bovine brain tubulin
Assay: Inhibition of tubulin polymerization
Assay type: biochemical
Conditions: 10 μM tubulin, extent of assembly after 20 min at 30° C.; read-out: Inhibition of tubulin polymerization IC50, μM ± SD
Protocol: Electrophoretically homogeneous bovine brain tubulin was purified from bovine brain as described previously (Hamel, et al., Separation of active tubulin and microtubule-associated proteins by ultracentrifugation and isolation of a component causing the formation of microtubule bundles, Biochemistry 1984, 23, 4173-4184). Reaction mixtures (0.24 mL during preincubation, 0.25 mL during incubation, with all concentrations referring to the final volume) contained 0.8 M monosodium glutamate (taken from 2.0 M stock solution adjusted to pH 6.6 with Hcl), 1.0 mg/mL (10 μM) tubulin, 4% (v/v) dimethyl sulfoxide, and varying concentrations of drug. Samples were incubated for 15 min at 30° C. and chilled on ice. GTP, required for polymerization, was added in 10 μL to a final concentration of 0.4 mM. Samples were transferred to cuvettes held at 0° C. by electronic temperature controllers in GILFORD model 250 recording spectrophotometers. Baselines were established, and the reaction was initiated by a jump (approximately 1 min) to 30° C. Extent of assembly after 20 min was the parameter used to determine IC50 values. […] In most experiments, four spectrophotometers were used, with two control reaction mixtures.

| SMILES | IC50 [µM] |
| --- | --- |
| COc1ccc(/C=C\c2cc(OC)c(OC)c(OC)c2)cc1OP(=O)([O-])[O-].[Na+].[Na+] [Compound 1d, combretastatin A4 sodium phosphate, reference compound] | > 80 |
| COc1ccc(C(=O)c2cc(OC)c(OC)c(OC)c2)cc1OC(C)=O [Compound 3e, Phenstatin Acetate] | 3.5 ± 0.5 |
| COc1ccc(C(=O)c2cc(OC)c(OC)c(OC)c2)cc1OP(=O)([O-])[O-].[Na+].[Na+] [Compound 3d, Disodium Phenstatin 3-O-phosphate] | 21 ± 3 |

Same assay, conditions: purified tubulin

| SMILES | activity against tubulin / in inhibiting assembly (in words) |
| --- | --- |
| COc1ccc(/C=C\c2cc(OC)c(OC)c(OC)c2)cc1OP(=O)([O-])[O-].[Na+].[Na+] [Compound 1d, combretastatin A4 sodium phosphate, reference compound] | totally inactive |
| COc1ccc(C(=O)c2cc(OC)c(OC)c(OC)c2)cc1OP(=O)([O-])[O-].[Na+].[Na+] [Compound 3d, Disodium Phenstatin 3-O-phosphate] | weak activity |

Tested on: SK-MEL-5
Assay: Human cancer cell growth inhibition, melanoma SK-MEL-5
Assay type: cell-based
Conditions: not given

| SMILES | GI50 [µg/mL] |
| --- | --- |
| COc1ccc(/C=C\c2cc(OC)c(OC)c(OC)c2)cc1OP(=O)([O-])[O-].[Na+].[Na+] [Compound 1d, combretastatin A4 sodium phosphate, reference compound] | 0.041 |
| COc1ccc(C(=O)c2cc(OC)c(OC)c(OC)c2)cc1OP(=O)([O-])[O-].[Na+].[Na+] [Compound 3d, Disodium Phenstatin 3-O-phosphate] | 0.0047 |
